Reference: DBAASP
≈ marks a conversion by molar mass, not a printed value. Where “and” joins values, the source holds several entries; their conditions need not be identical. Equal values may be shown once.

What was measured:
Test in all cases: ≥ marks a high value that may be exact or a test limit, other limits are often not marked, values filed in µg/mL are converted to µM
[1] = system: Staphylococcus aureus ATCC 29213
[2] = system: Escherichia coli DH5alpha
[3] = system: Klebsiella pneumoniae ATCC 10031
[4] = system: Escherichia coli O157
[5] = system: Escherichia coli ATCC 25404
[6] = system: Staphylococcus epidermidis ATCC 12228
[7] = system: Staphylococcus epidermidis ATCC 9709
[8] = system: Staphylococcus aureus ATCC 6538
[9] = system: Listeria monocytogenes
[10] = system: Micrococcus luteus ATCC 10420
[11] = system: Micrococcus luteus ATCC 4698
[12] = system: Salmonella enterica subsp. enterica serovar Typhimurium ATCC 14028
[13] = system: Staphylococcus aureus ATCC 43300
[14] = system: Salmonella typhimurium
[15] = system: Candida albicans MDM8
[16] = system: Pseudomonas aeruginosa NCIB 10421
[17] = system: Escherichia coli SBS 363
[18] = system: Micrococcus luteus A270
[19] = system: Bacillus subtilis ATCC 6633
[20] = system: Enterobacter cloacae beta-12
[21] = system: Serratia marcescens ATCC 4112
[22] = system: Bacillus megaterium ATCC 10778
[23] = system: Candida tropicalis IOC 4560
[24] = system: Klebsiella pneumoniae NCTC 13368
[25] = system: Escherichia coli NCTC 12923
[26] = system: Pseudomonas aeruginosa PAO1
[27] = system: Candida albicans ATCC 90028
[28] = system: Staphylococcus aureus ATCC 9144
[29] = system: Acinetobacter baumannii ATCC 17978
[30] = system: Staphylococcus aureus USA 300
[31] = system: Streptococcus pyogenes ATCC 19615
[32] = system: Salmonella enterica subsp. enterica serovar Typhimurium ATCC 14028s
[33] = system: Staphylococcus epidermidis C621
[34] = system: Escherichia coli UB1005
[35] = system: Pseudomonas aeruginosa K799
[36] = system: Streptococcus mitis
[37] = system: Corynebacterium xerosis
[38] = system: Enterococcus faecalis ATCC 29212
[39] = system: Staphylococcus aureus ATCC 25923
[40] = system: Streptococcus pneumoniae ATCC 49619
[41] = system: Franconibacter helveticus DSM 18390
[42] = system: Staphylococcus xylosus DSM 20287
[43] = system: Bacillus subtilis DSM 347
[44] = system: Escherichia coli DSM 1116

SMILES: CC(C)C[C@H](NC(=O)[C@H](CC(C)C)NC(=O)[C@H](CCCCN)NC(=O)[C@H](CO)NC(=O)[C@H](CC(C)C)NC(=O)[C@H](C)NC(=O)[C@H](CCCCN)NC(=O)[C@H](Cc1ccccc1)NC(=O)[C@H](CC(C)C)NC(=O)[C@H](C)NC(=O)CNC(=O)[C@H](CC(C)C)NC(=O)[C@@H](N)Cc1ccccc1)C(=O)O [FLGALFKALSKLL]
- MIC [1]: 4 µM and > 2 µM
- MIC [2]: ≥ 98.5 µM
- MIC [3]: 17.6 µM (≈ 25 µg/mL)
- MIC [4]: ≥ 64 µM
- MIC [5]: ≥ 64 µM
- MIC [6]: 6.33 µM (≈ 9 µg/mL)
- MIC [7]: 4 µM (≈ 5.68 µg/mL)
- MIC [8]: 3.52 µM (≈ 5 µg/mL)
- MIC [9]: 2 µM (≈ 2.84 µg/mL)
- MIC [10]: 2 µM (≈ 2.84 µg/mL)
- MIC [11]: 2.11 µM (≈ 3 µg/mL)
- MIC [12]: > 70.4 µM
- MIC [13]: 4 µM (≈ 5.68 µg/mL)
- MIC [14]: ≥ 64 µM

SMILES: CC[C@H](C)[C@H](N)C(=O)N[C@@H](CC(C)C)C(=O)N[C@@H](CC(C)C)C(=O)N[C@@H](CCCCN)C(=O)N[C@H](C(=O)N[C@@H](Cc1c[nH]c2ccccc12)C(=O)N[C@@H](CCC(=O)O)C(=O)NCC(=O)N[C@H](C(=O)N[C@@H](CCCCN)C(=O)N[C@@H](CO)C(=O)N[C@@H](CC(C)C)C(=O)N[C@@H](Cc1ccccc1)C(N)=O)[C@@H](C)CC)[C@@H](C)CC [ILLKIWEGIKSLF]
- MIC [1]: 1.56 µM (≈ 2.43 µg/mL)
- MIC [15]: 3.13 µM (≈ 4.88 µg/mL)
- MIC [16]: ≥ 50 µM
- MIC [17]: 0.78 µM (≈ 1.22 µg/mL)
- MIC [18]: 0.78 µM (≈ 1.22 µg/mL)
- MIC [19]: 0.78 µM (≈ 1.22 µg/mL)
- MIC [20]: 12.5 µM (≈ 19.5 µg/mL)
- MIC [21]: 0.36 µM (≈ 0.561 µg/mL)
- MIC [22]: 0.78 µM (≈ 1.22 µg/mL)
- MIC [23]: 3.13 µM (≈ 4.88 µg/mL)

SMILES: C[C@H](NC(=O)CNC(=O)[C@H](CCCCN)NC(=O)[C@@H](N)CS)C(=O)N[C@@H](Cc1ccccc1)C(=O)N[C@@H](CCCCN)C(=O)N[C@@H](CCC(N)=O)C(=O)N[C@H](C(=O)N[C@@H](CS)C(=O)N[C@@H](CCCCN)C(=O)N[C@@H](CS)C(=O)N[C@@H](Cc1ccc(O)cc1)C(N)=O)[C@@H](C)O [CKGAFKQTCKCY]
- MIC [24]: ≥ 92.8 µM
- MIC [25]: ≥ 92.8 µM
- MIC [26]: > 92.8 µM
- MIC [27]: 4.4 µM (≈ 6.07 µg/mL)
- MIC [28]: ≥ 92.8 µM
- MIC [29]: ≥ 92.8 µM
- MIC [30]: ≥ 92.8 µM

SMILES: CC[C@H](C)[C@H](NC(=O)[C@@H](NC(=O)[C@@H](NC(=O)[C@@H](NC(=O)[C@@H]1CCCN1C(=O)[C@H](CS)NC(=O)[C@H](CCCN=C(N)N)NC(=O)[C@H](CCCN=C(N)N)NC(=O)[C@@H](N)CCCN=C(N)N)[C@@H](C)CC)C(C)C)C(C)C)C(=O)N[C@@H](CCCN=C(N)N)C(=O)N[C@H](C(=O)N[C@@H](CS)C(=O)N[C@@H](CCCN=C(N)N)C(=O)N[C@@H](CCCN=C(N)N)C(=O)O)C(C)C [RRRCPIVVIRVCRR]
- MIC [31]: 8.98 µM (≈ 16 µg/mL)
- MIC [32]: ≥ 35.9 µM
- MIC [33]: 8.98 µM (≈ 16 µg/mL)
- MIC [34]: 4.49 µM (≈ 8 µg/mL)
- MIC [9]: 1.12 µM (≈ 2 µg/mL)
- MIC [35]: ≥ 35.9 µM
- MIC [36]: 0.281 µM (≈ 0.5 µg/mL)
- MIC [37]: 0.281 µM (≈ 0.5 µg/mL)
- MIC [38]: 35.9 µM (≈ 64 µg/mL)
- MIC [39]: > 35.9 µM
- MIC [40]: ≥ 35.9 µM

SMILES: CC(C)C[C@H](NC(=O)[C@H](CC(C)C)NC(=O)[C@H](Cc1cnc[nH]1)NC(=O)[C@H](CO)NC(=O)[C@H](CC(C)C)NC(=O)[C@H](C)NC(=O)[C@H](CCCCN)NC(=O)[C@H](Cc1c[nH]c2ccccc12)NC(=O)[C@H](CC(C)C)NC(=O)[C@H](C)NC(=O)CNC(=O)[C@H](CC(C)C)NC(=O)[C@@H](N)Cc1ccccc1)C(=O)O [FLGALWKALSHLL]
- MIC [4]: ≥ 64 µM
- MIC [5]: ≥ 64 µM
- MIC [7]: 4 µM (≈ 5.88 µg/mL)
- MIC [9]: 8 µM (≈ 11.8 µg/mL)
- MIC [10]: 4 µM (≈ 5.88 µg/mL)
- MIC [39]: 4 µM (≈ 5.88 µg/mL)
- MIC [14]: ≥ 64 µM

SMILES: CC[C@H](C)[C@H](NC(=O)[C@@H](NC(=O)[C@@H](NC(=O)[C@@H]1CCCN1C(=O)[C@H](CS)NC(=O)[C@H](CC(C)C)NC(=O)[C@H](CCCN=C(N)N)NC(=O)[C@H](CCCN=C(N)N)NC(=O)[C@@H](N)CCCN=C(N)N)[C@@H](C)CC)C(C)C)C(=O)N[C@@H](CCCN=C(N)N)C(=O)N[C@H](C(=O)N[C@@H](CS)C(=O)N[C@@H](CCCN=C(N)N)C(=O)N[C@@H](CCCN=C(N)N)C(=O)O)C(C)C [RRRLCPIVIRVCRR]
- MIC [31]: 4.45 µM (≈ 8 µg/mL)
- MIC [32]: 17.8 µM (≈ 32 µg/mL)
- MIC [33]: 4.45 µM (≈ 8 µg/mL)
- MIC [34]: 2.23 µM (≈ 4 µg/mL)
- MIC [9]: 0.557 µM (≈ 1 µg/mL)
- MIC [35]: 17.8 µM (≈ 32 µg/mL)
- MIC [36]: 0.557 µM (≈ 1 µg/mL)
- MIC [37]: 0.278 µM (≈ 0.5 µg/mL)
- MIC [38]: 17.8 µM (≈ 32 µg/mL)
- MIC [39]: > 35.6 µM
- MIC [40]: ≥ 35.6 µM

SMILES: CC[C@H](C)[C@H](N)C(=O)N[C@@H](C)C(=O)N[C@@H](CCCCN)C(=O)N[C@H](C(=O)N[C@@H](C)C(=O)NCC(=O)N[C@@H](CCCCN)C(=O)N[C@H](C(=O)N[C@@H](C)C(=O)N[C@@H](CCCCN)C(=O)N[C@H](C(=O)N[C@@H](C)C(=O)NCC(=O)N[C@@H](CCCCN)C(=O)N[C@H](C(=O)N[C@@H](C)C(=O)N[C@@H](CCCCN)C(=O)N[C@H](C(=O)N[C@@H](C)C(=O)NCC(=O)N[C@@H](CCCCN)C(=O)N[C@H](C(=O)N[C@@H](C)C(N)=O)[C@@H](C)CC)[C@@H](C)CC)[C@@H](C)CC)[C@@H](C)CC)[C@@H](C)CC)[C@@H](C)CC [IAKIAGKIAKIAGKIAKIAGKIA]
- MIC [41]: 1.26 µM (≈ 2.83 µg/mL)
- MIC [42]: 0.89 µM (≈ 2 µg/mL)
- MIC [43]: 0.89 µM (≈ 2 µg/mL)
- MIC [44]: 1.78 µM (≈ 4 µg/mL)

SMILES: CC[C@H](C)[C@H](N)C(=O)N[C@@H](CC(C)C)C(=O)NCC(=O)N[C@@H](CCCCN)C(=O)N[C@@H](Cc1ccccc1)C(=O)N[C@@H](Cc1c[nH]c2ccccc12)C(=O)N[C@@H](CCC(=O)O)C(=O)NCC(=O)N[C@H](C(=O)N[C@@H](CCCCN)C(=O)N[C@@H](CO)C(=O)N[C@@H](CC(C)C)C(=O)N[C@@H](Cc1ccccc1)C(N)=O)[C@@H](C)CC [ILGKFWEGIKSLF]
- MIC [1]: 6.25 µM (≈ 9.61 µg/mL)
- MIC [15]: 3.13 µM (≈ 4.81 µg/mL)
- MIC [16]: 25 µM (≈ 38.4 µg/mL)
- MIC [17]: 3.13 µM (≈ 4.81 µg/mL)
- MIC [18]: 0.78 µM (≈ 1.2 µg/mL)
- MIC [19]: 0.78 µM (≈ 1.2 µg/mL)
- MIC [20]: 12.5 µM (≈ 19.2 µg/mL)
- MIC [21]: 0.78 µM (≈ 1.2 µg/mL)
- MIC [22]: 0.78 µM (≈ 1.2 µg/mL)
- MIC [23]: 1.56 µM (≈ 2.4 µg/mL)
